In patent US20160375006A1, “USES OF PARALOG-SELECTIVE INHIBITORS OF GSK3 KINASES” (priority 2012, published 2016):
Like-named read-outs stand apart in the source and are kept apart here.

How the values were obtained:
[1] = target: CDK2/CycE1 (Homo sapiens, UniProt P24941)
Protocol: (§1) This was completed utilizing one of two assays depending on the kinase being examined.
(§2) A solution of IMAP binding reagent (IMAP Screening Express kit; Molecular Devices) (60 μL) was added to each well and incubated for 30 minutes.
(§3) A solution of termination buffer (QuickScout Screening assist MSA; Carna Biosciences) (60 μL) was added to each well. The entire reaction mixture was then applied to a LabChip3000 system (Caliper Life Science) and the product and substrate peptide peaks were separated and quantified.
(§4) The assay utilized was identical to that of the single point inhibitory activity determination (MSA) but run in dose response. […] A solution of termination buffer (QuickScout Screening assist MSA; Carna Biosciences) (60 μL) was added to each well. The entire reaction mixture was then applied to a LabChip3000 system (Caliper Life Science) and the product and substrate peptide peaks were separated and quantified.

[2] = target: HGK (Homo sapiens, UniProt O95819)
Protocol: as §2, §3, §4

[3] = target: LOK (Homo sapiens, UniProt O94804)
Protocol: as §1, §2, §3

[4] = target: CDK7/CycH/MAT1 (Homo sapiens, UniProt P50613)
Protocol: as §1, §2, §3, §4

[5] = target: YES (Homo sapiens, UniProt P07947)
Protocol: as §1, §2, §3

[6] = target: BRAF(V600E)_Cascade (Homo sapiens, UniProt P15056, V600E)
Protocol: as §1, §2, §3

[7] = target: TRKC (Homo sapiens, UniProt Q16288)
Protocol: as §1, §2, §3, §4

[8] = target: MLK1_Cascade (Homo sapiens, UniProt P80192)
Protocol: as §1, §3
(§5) The assay utilized was identical to that of the single point inhibitory activity determination (MSA) but run in dose response.

[9] = target: AurA (Homo sapiens, UniProt O14965)
AurA, sequence (O14965 whole entry): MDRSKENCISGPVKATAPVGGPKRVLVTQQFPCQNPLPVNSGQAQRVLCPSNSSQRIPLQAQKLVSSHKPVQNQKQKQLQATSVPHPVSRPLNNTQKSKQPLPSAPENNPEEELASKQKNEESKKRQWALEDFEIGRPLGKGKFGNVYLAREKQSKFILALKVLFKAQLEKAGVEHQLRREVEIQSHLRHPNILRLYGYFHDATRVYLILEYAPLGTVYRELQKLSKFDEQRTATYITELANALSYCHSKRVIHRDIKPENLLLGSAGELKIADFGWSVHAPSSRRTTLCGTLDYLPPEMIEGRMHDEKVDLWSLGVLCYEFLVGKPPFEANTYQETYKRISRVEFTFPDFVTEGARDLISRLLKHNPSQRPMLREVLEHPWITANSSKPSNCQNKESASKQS
Protocol: as §1, §3, §5

[10] = target: PLK2 (Homo sapiens, UniProt Q9NYY3)
Protocol: as §1, §2, §3, §4

[11] = target: AXL (Homo sapiens, UniProt P30530)
AXL, sequence (P30530 26-894): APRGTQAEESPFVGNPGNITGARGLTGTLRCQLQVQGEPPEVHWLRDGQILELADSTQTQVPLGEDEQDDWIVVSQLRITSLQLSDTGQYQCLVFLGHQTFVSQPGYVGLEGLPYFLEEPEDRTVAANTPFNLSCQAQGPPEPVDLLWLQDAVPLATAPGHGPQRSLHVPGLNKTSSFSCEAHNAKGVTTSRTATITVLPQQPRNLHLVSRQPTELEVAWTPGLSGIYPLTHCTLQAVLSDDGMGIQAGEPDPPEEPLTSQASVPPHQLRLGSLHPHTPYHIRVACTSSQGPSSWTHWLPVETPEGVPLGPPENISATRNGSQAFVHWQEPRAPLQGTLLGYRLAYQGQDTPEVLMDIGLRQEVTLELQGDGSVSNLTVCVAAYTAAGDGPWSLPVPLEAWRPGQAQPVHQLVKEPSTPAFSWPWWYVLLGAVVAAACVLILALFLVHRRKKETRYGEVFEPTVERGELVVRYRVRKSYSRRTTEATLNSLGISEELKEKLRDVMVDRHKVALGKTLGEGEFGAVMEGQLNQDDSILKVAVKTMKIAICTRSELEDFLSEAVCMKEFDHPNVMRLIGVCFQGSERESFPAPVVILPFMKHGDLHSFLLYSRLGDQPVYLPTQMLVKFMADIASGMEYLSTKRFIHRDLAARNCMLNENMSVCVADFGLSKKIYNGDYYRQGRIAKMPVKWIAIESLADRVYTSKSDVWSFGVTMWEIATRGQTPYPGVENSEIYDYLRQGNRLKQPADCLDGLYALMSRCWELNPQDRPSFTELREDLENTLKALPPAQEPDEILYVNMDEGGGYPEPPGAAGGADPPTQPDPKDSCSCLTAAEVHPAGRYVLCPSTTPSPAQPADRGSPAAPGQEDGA
Protocol: as §1, §2, §3

[12] = target: PKN1 (Homo sapiens, UniProt Q16512)
Protocol: as §1, §2, §3, §4

[13] = target: PEK (Homo sapiens, UniProt Q9NZJ5)
Protocol: as §1, §2, §3

[14] = target: FRK (Homo sapiens, UniProt P42685)
FRK, sequence (P42685 whole entry): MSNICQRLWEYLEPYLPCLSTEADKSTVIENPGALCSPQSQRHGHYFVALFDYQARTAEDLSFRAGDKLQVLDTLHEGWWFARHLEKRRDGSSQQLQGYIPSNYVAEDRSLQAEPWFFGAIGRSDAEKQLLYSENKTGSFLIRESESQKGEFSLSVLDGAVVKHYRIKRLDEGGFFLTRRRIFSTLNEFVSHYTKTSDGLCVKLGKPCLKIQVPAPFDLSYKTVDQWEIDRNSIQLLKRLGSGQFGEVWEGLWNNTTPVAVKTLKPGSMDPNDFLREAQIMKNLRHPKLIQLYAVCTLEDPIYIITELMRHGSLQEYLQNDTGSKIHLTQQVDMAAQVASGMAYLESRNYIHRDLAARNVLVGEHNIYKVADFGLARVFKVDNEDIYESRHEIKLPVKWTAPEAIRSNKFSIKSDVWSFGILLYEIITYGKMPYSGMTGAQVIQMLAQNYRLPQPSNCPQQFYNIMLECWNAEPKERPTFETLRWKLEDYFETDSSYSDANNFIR
Protocol: as §1, §2, §3, §4

[15] = target: ALK(R1275Q) (Homo sapiens, UniProt Q9UM73, R1275Q)
Protocol: as §1, §2, §3, §4

[16] = target: ALK(L1196M) (Homo sapiens, UniProt Q9UM73, L1196M)
Protocol: as §1, §2, §3, §4

[17] = target: MST4 (Homo sapiens, UniProt Q9P289)
Protocol: as §1, §2, §3, §4

[18] = target: HIPK2 (Homo sapiens, UniProt Q9H2X6)
Protocol: as §1, §2, §3, §4

[19] = target: MET(Y1235D) (Homo sapiens, UniProt P08581, Y1235D)
Protocol: as §1, §2, §3, §4

[20] = target: PKCζ (Homo sapiens, UniProt Q05513)
PKCζ, sequence (Q05513 whole entry): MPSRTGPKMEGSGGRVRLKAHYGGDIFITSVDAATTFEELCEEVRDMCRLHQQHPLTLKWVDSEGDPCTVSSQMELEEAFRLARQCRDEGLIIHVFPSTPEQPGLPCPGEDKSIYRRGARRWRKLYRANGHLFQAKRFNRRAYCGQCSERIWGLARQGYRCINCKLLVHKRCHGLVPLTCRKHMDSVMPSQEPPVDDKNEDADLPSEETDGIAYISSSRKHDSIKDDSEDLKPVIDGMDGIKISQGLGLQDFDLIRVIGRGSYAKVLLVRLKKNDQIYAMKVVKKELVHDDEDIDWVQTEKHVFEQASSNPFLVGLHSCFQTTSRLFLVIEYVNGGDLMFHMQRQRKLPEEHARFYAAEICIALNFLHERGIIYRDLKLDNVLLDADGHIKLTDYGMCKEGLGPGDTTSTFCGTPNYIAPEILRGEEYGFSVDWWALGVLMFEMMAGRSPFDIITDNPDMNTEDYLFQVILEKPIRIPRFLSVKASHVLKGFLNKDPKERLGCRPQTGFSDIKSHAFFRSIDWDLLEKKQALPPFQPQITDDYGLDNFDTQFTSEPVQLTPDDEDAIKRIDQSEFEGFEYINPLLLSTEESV
Protocol: as §1, §2, §3, §4

[21] = target: NuaK2 (Homo sapiens, UniProt Q9H093)
Protocol: as §1, §2, §3, §4

[22] = target: PHKG1 (Homo sapiens, UniProt Q16816)
Protocol: as §1, §2, §3, §4

[23] = target: FLT1 (Homo sapiens, UniProt P17948)
Protocol: as §1, §2, §3, §4

[24] = target: FGFR3 (Homo sapiens, UniProt P22607)
FGFR3, sequence (P22607 23-806): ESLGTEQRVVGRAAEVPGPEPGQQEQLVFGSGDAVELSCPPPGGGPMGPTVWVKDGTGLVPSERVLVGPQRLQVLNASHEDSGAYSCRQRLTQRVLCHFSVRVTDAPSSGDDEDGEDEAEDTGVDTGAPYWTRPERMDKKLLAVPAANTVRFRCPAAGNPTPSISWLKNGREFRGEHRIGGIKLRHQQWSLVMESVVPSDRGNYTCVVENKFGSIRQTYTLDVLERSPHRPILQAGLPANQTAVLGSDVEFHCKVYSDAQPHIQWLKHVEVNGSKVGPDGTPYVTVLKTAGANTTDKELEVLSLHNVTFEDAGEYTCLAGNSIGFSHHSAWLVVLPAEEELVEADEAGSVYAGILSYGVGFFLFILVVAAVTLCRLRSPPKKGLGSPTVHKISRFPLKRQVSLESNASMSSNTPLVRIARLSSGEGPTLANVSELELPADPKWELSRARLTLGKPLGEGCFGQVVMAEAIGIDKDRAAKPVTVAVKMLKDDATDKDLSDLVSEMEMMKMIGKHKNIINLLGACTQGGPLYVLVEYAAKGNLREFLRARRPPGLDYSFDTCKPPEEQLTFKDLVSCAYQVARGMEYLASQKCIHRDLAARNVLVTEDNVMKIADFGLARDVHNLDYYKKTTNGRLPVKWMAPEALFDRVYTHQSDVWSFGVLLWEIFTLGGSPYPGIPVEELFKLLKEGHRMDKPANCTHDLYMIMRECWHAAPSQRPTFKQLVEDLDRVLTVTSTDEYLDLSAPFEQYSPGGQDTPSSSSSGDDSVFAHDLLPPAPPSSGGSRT
Protocol: as §2, §3, §4

[25] = target: JNK3 (Homo sapiens, UniProt P53779)
Protocol: as §1, §2, §3

[26] = target: p38γ (Homo sapiens, UniProt P53778)
Protocol: as §1, §2, §3

[27] = target: FGR (Homo sapiens, UniProt P09769)
Protocol: as §1, §2, §3, §4

[28] = target: PDGFRα(V561D) (Homo sapiens, UniProt P16234, V561D)
Protocol: as §1, §2, §3, §4

[29] = target: FAK (Homo sapiens, UniProt Q05397)
FAK, sequence (Q05397 whole entry): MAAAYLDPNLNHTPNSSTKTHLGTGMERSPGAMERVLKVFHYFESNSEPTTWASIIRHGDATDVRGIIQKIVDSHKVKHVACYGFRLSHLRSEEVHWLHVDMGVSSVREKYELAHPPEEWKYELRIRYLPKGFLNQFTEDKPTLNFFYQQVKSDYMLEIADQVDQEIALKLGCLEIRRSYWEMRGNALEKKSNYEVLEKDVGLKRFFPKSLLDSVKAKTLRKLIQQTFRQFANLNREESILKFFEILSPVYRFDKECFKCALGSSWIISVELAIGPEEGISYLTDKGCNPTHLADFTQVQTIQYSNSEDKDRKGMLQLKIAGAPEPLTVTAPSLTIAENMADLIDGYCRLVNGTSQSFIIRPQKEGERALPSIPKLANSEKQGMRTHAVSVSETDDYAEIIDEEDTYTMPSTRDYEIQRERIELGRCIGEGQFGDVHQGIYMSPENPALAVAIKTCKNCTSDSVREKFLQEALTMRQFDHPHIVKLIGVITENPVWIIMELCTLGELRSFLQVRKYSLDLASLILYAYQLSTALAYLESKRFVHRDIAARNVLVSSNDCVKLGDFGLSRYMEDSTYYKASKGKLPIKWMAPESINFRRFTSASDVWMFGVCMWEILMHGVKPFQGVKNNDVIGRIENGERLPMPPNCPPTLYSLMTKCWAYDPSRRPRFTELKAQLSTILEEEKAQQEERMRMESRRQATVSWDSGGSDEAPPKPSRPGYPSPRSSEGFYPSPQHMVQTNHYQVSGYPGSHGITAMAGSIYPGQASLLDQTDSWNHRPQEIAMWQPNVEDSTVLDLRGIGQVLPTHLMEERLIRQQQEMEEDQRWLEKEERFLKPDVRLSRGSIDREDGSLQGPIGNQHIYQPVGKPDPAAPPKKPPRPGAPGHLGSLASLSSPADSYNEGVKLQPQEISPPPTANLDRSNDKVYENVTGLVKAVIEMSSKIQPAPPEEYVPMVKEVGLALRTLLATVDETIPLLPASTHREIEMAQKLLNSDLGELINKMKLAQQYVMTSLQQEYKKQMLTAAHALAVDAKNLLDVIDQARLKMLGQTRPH
Protocol: as §1, §2, §3, §4

[30] = target: EGFR(T790M/L858R) (Homo sapiens, UniProt P00533, L858R/T790M)
Protocol: as §1, §2, §3, §4

[31] = target: Haspin (Homo sapiens, UniProt Q8TF76)
Protocol: as §1, §2, §3, §4

[32] = target: PKCδ (Homo sapiens, UniProt Q05655)
Protocol: as §1, §2, §3, §4

[33] = target: RET (Homo sapiens, UniProt P07949)
Protocol: as §1, §2, §3

[34] = target: CGK2 (Homo sapiens, UniProt Q13237)
CGK2, sequence (Q13237 whole entry): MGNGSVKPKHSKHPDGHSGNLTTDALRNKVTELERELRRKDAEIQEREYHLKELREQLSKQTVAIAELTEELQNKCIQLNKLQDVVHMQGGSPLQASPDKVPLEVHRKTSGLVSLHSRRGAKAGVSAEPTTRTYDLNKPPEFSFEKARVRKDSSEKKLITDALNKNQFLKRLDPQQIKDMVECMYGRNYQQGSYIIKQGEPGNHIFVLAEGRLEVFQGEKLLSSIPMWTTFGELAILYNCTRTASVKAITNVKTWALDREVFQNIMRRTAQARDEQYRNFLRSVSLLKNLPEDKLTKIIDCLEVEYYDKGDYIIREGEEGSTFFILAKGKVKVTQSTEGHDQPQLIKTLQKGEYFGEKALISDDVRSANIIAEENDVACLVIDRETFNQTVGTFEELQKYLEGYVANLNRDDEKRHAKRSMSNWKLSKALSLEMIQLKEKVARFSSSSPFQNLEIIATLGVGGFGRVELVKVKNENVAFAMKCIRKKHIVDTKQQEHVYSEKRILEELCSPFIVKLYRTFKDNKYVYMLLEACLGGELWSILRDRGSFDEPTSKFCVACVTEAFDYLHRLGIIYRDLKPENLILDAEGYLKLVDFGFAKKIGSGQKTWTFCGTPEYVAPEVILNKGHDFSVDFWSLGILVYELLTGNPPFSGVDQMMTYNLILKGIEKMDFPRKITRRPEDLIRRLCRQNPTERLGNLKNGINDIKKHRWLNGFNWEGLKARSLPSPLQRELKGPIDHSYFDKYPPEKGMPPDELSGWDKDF
Protocol: as §1, §2, §3, §4

[35] = target: FLT4 (Homo sapiens, UniProt P35916)
Protocol: as §1, §2, §3, §4

[36] = target: AKT1 (Homo sapiens, UniProt P31749)
Protocol: as §1, §2, §3, §4

[37] = target: Erk1 (Homo sapiens, UniProt P27361)
Protocol: as §1, §2, §3

[38] = target: EGFR(d746-750) (Homo sapiens, UniProt P00533, DEL746-750)
Protocol: as §1, §2, §3

[39] = target: FGFR3(K650E) (Homo sapiens, UniProt P22607, K650E)
FGFR3(K650E), sequence (P22607 23-806 K650E): as the sequence (P22607 23-806) above, with K628E counted along it
Protocol: as §1, §2, §3, §4

Structure (SMILES): CC[C@@]1(c2ccccc2)C2=C(CC(C)(C)CC2=O)Nc2n[nH]cc21 [BRD0705]
- % Inhibition at 10 μM ([1]; CDK2/CycE1): 53.4%
- IC50 ([1]; read-out: IC50 CDK2/CycE1): 9.43 µM
- % Inhibition at 10 μM [2]: 14.9%
- % Inhibition at 10 μM [3]: 9.6%
- % Inhibition at 10 μM [4]: 8.3%
- % Inhibition at 10 μM [5]: 7.9%
- % Inhibition at 10 μM [6]: 7.0%
- % Inhibition at 10 μM [7]: 6.4%
- % Inhibition at 10 μM [8]: 6.3%
- % Inhibition at 10 μM [9]: 6.1%
- % Inhibition at 10 μM [10]: 4.0%
- % Inhibition at 10 μM [11]: 3.7%
- % Inhibition at 10 μM [12]: 1.8%
- % Inhibition at 10 μM [13]: 1.7%
- % Inhibition at 10 μM [14]: 0.9%
- % Inhibition at 10 μM [15]: 0.7%
- % Inhibition at 10 μM [16]: 0.4%
- % Inhibition at 10 μM [17]: −0.4%
- % Inhibition at 10 μM [18]: −0.5%
- % Inhibition at 10 μM [19]: −1.0%
- % Inhibition at 10 μM [20]: −1.0%
- % Inhibition at 10 μM [21]: −1.7%
- % Inhibition at 10 μM [22]: −2.5%
- % Inhibition at 10 μM [23]: −2.6%
- % Inhibition at 10 μM [24]: −2.8%
- % Inhibition at 10 μM [25]: −3.4%
- % Inhibition at 10 μM [26]: −3.4%
- % Inhibition at 10 μM [27]: −3.4%
- % Inhibition at 10 μM [28]: −3.7%
- % Inhibition at 10 μM [29]: −3.9%
- % Inhibition at 10 μM [30]: −4.0%
- % Inhibition at 10 μM [31]: −5.1%
- % Inhibition at 10 μM [32]: −5.5%
- % Inhibition at 10 μM [33]: −5.6%
- % Inhibition at 10 μM [34]: −7.3%
- % Inhibition at 10 μM [35]: −7.9%
- % Inhibition at 10 μM [36]: −8.3%
- % Inhibition at 10 μM [37]: −9.8%
- % Inhibition at 10 μM [38]: −12.0%
- % Inhibition at 10 μM [39]: −15.5%

Structure (SMILES): CC(C)(C)Cc1[nH]nc2c1[C@](C)(c1ccccc1)C1=C(CC(C)(C)CC1=O)N2 [BRD3731]
- IC50 ([1]; CDK2/CycE1): 8.8 µM
- % Inhibition 10 μM ([1]; CDK2/CycE1, 10 μM): 42.6%
- Fold Selectivity ([1]; IC50 CDK2/CycE1 / IC50 GSK3β): 326.9 fold
- % Inhibition 10 μM ([2]; 10 μM): −3.8%
- % Inhibition 10 μM ([3]; 10 μM): −1.0%
- % Inhibition 10 μM ([4]; 10 μM): 21.3%
- % Inhibition 10 μM ([5]; 10 μM): 1.6%
- % Inhibition 10 μM ([6]; 10 μM): −5.2%
- % Inhibition 10 μM ([7]; 10 μM): 12.1%
- % Inhibition 10 μM ([8]; 10 μM): −9.4%
- % Inhibition 10 μM ([9]; 10 μM): 15.4%
- % Inhibition 10 μM ([10]; 10 μM): 8.5%
- % Inhibition 10 μM ([11]; 10 μM): 3.8%
- % Inhibition 10 μM ([12]; 10 μM): 16.2%
- % Inhibition 10 μM ([13]; 10 μM): 1.4%
- % Inhibition 10 μM ([14]; 10 μM): 3.2%
- % Inhibition 10 μM ([15]; 10 μM): 1.9%
- % Inhibition 10 μM ([16]; 10 μM): 3.6%
- % Inhibition 10 μM ([17]; 10 μM): 6.4%
- % Inhibition 10 μM ([18]; 10 μM): 3.2%
- % Inhibition 10 μM ([19]; 10 μM): 1.2%
- % Inhibition 10 μM ([20]; 10 μM): 5.0%
- % Inhibition 10 μM ([21]; 10 μM): −2.8%
- % Inhibition 10 μM ([22]; 10 μM): 13.9%
- % Inhibition 10 μM ([23]; 10 μM): 3.2%
- % Inhibition 10 μM ([24]; 10 μM): −0.7%
- % Inhibition 10 μM ([25]; 10 μM): −2.6%
- % Inhibition 10 μM ([26]; 10 μM): −2.6%
- % Inhibition 10 μM ([27]; 10 μM): 12.0%
- % Inhibition 10 μM ([28]; 10 μM): 6.6%
- % Inhibition 10 μM ([29]; 10 μM): 2.3%
- % Inhibition 10 μM ([30]; 10 μM): −4.0%
- % Inhibition 10 μM ([31]; 10 μM): 5.3%
- % Inhibition 10 μM ([32]; 10 μM): 10.7%
- % Inhibition 10 μM ([33]; 10 μM): 3.0%
- % Inhibition 10 μM ([34]; 10 μM): 4.4%
- % Inhibition 10 μM ([35]; 10 μM): 16.8%
- % Inhibition 10 μM ([36]; 10 μM): −1.1%
- % Inhibition 10 μM ([37]; 10 μM): 3.4%
- % Inhibition 10 μM ([38]; 10 μM): 2.5%
- % Inhibition 10 μM ([39]; 10 μM): 0.7%
